Data on one compound can be found in patent publication US4044051A, “9[2-(1-Al koxy-ethyl)-5,5-dimethyl-cyclopent-1-en-1-yl]-3,7-dimethyl-nona-2,4,6,8-t etraen acid compounds” (Hoffmann-La Roche Inc., priority 1971, dated 1977).

For one data set, the system named is mice. Description: acute toxicity (delayed toxicity in mice after 20 days), i.p. in rape oil. Format: in vivo. The source says:
(§1) The toxicity of the polyene compound of formula I is slight.

Experiment in data set [1]: as above
Format: in vivo. The settings on record: mouse, ip.
From the text: as §1

`COC(C)C1=C(C=CC(C)=CC=CC(C)=CC(=O)O)C(C)(C)CC1` (centres unmarked) [9-[2-(1-methoxyethyl)-5,5-dimethyl-cyclopent-1-en-1-y1]-3,7-dimethyl-nona-2,4,6,8-tetraen-1-acid]: the LD10 with mice (after 1 day) is over 4000 mg/kg; in the data set with mice (after 10 days), 290 mg/kg; in the data set on mice (after 20 days), 290 mg/kg. Moreover, the LD90 with mice (after 1 day) is on record as over 4000 mg/kg; in the data set with mice (after 10 days), 430 mg/kg; with mice (after 20 days), 430 mg/kg. This compound showed an LD50 at 24 h in data set [1] (after 1 day) of over 4000 mg/kg. The compound also gave an LD50 at 240 h in data set [1] (after 10 days) of 350 mg/kg.
